Test results reported in patent publication US10407467B2, “Polymyxin derivatives and their use in combination therapy together with different antibiotics” (priority 2013, dated 2019).
Structures can show the parent of a compound that is named as a salt. Numbered stars: 1 amine (or outer) side, 2 acyl side, 3 side chain; on linkers, the order of the positions; unused ones are H or OH. Bridge positions count the residues as written; N and C are the ends. Square brackets hold non-standard residues; d marks the D form. Peptide text beside a SMILES is read from it. * marks the point of attachment. ξ: configuration not given here. X25 = CC(O)[C@@H](C(=O)[*:2])N(CCC1(N)CCCCC1)[*:1]; Hyp = O=C(O)[C@@H]1C[C@@H](O)CN1; X24 = O=C(CCN1CCS(=O)(=O)CC1)*; Thr(3ξ) = CC(O)[C@H](N)C(=O)O; Chg = N[C@H](C(=O)O)C1CCCCC1; 4Abz = Nc1ccc(C(=O)O)cc1; Dab = NCC[C@H](N)C(=O)O

Tests used:
Format in all cases: cell-based
Klebsiella pneumoniae [1] = test: MIC, compound in combination with a second agent (broth microdilution); details: 1:1 (wt:wt) combination with Rifampicin
Procedure: (§1) To evaluate the potency and spectrum of the compounds both alone and in combination with another agent, susceptibility testing was performed against up to four strains of each of the four Gram negative pathogens, Escherichia coli, Pseudomonas aeruginosa, Klebsiella pneumoniae and Acinetobacter baumannii.
(§2) Ratios of components in a combination, such as 1:1, refers to a weight to weight ratio. The minimum inhibitory concentration (MIC) refers to the total drug concentration (e.g. test compound plus second agent, such as Rifampicin).
(§3) The inoculum was prepared by making a direct suspension of isolated colonies (selected from an 18-24 hour Mueller-Hinton agar plate) adjusted to the 0.5 McFarland standard.
(§4) The assays were performed in duplicate.
(§5) In cases where the duplicate values varied by less than 2-fold, the lower of the two values is reported. If a variation of greater than 2-fold was observed, the assay was considered non-valid. Several of the compounds were subjected to multiple tests, and where this is the case, the MIC reflects the modal value obtained.
(§6) The minimum inhibitory concentration refers to the total drug concentration (e.g. test compound plus Rifampicin). The compounds are used at equal mass within the combination. The weight refers to the mass of compound as used, for example the Example Compounds are used in their TFA or sulphate salt forms.
(§7) MICs refer to the total drug concentration. Thus, where a 1:1 combination is used, this is the amount of the test compound plus the second agent. For comparison, the MIC values for the second agent alone are also given.

Pseudomonas aeruginosa [2] = test: as above; details: 1:1 (wt:wt) combination with Rifampicin
Procedure: as §1, §2, §3, §4, §5, §6, §7

Klebsiella pneumoniae [3] = test: MIC, sole activity (no second agent); details: in the absence of Rifampicin; strain ATCC 4352
Procedure: as §1, §3, §4, §5
(§8) MICs were determined as described herein, except that a different supplier of Cation-adjusted MHB was used. […] Values are reported relative to Polymyxin B.

Escherichia coli = test: MIC, sole activity (no second agent); details: in the absence of Rifampicin; strain ATCC25922
Procedure: as §1, §3, §4, §5, §8

Pseudomonas aeruginosa [4] = test: MIC, sole activity (no second agent); details: in the absence of Rifampicin; strain ATCC27853
Procedure: as §1, §3, §4, §5, §8

[5] = MIC = total drug concentration, strain ATCC-BAA-2146
[6] = MIC = total drug concentration, strain CCUG-59348
[7] = MIC = total drug concentration, strain NCTC 13438
[8] = MIC = total drug concentration, strain CCUG 59626
[9] = MIC is total drug concentration

Row | MIC K. pneumoniae ATCC-BAA-2146 (Klebsiella pneumoniae [1]; [5]) [micrograms/mL] | MIC K. pneumoniae CCUG-59348 (Klebsiella pneumoniae [1]; [6]) [micrograms/mL] | MIC K. pneumoniae NCTC 13438 (Klebsiella pneumoniae [1]; [7]) [micrograms/mL] | MIC P. aeruginosa CCUG 59626 (Pseudomonas aeruginosa [2]; [8]) [micrograms/mL] | MIC K. pneumoniae ATCC 4352 (Klebsiella pneumoniae [3]) [micrograms/mL] | MIC E. coli ATCC25922 (Escherichia coli) [micrograms/mL] | MIC P. aeruginosa ATCC 27853 (Pseudomonas aeruginosa [4]) [micrograms/mL] | SMILES | MIC K. pneumoniae ATCC-BAA-2146 (Klebsiella pneumoniae [1]; [9]) [micrograms/mL] | MIC K. pneumoniae CCUG-59348 (Klebsiella pneumoniae [1]; [9]) [micrograms/mL] | MIC K. pneumoniae NCTC 13438 (Klebsiella pneumoniae [1]; [9]) [micrograms/mL] | MIC P. aeruginosa CCUG 59626 (Pseudomonas aeruginosa [2]; [9]) [micrograms/mL]
1 | 2 | 2 | 0.5 | 1 | 8 | 8 | 4 | CCCCCCC(O)C(=O)N[C@H](C(=O)N[C@@H](CCN)C(=O)N[C@H]1CCNC(=O)[C@H](C(C)O)NC(=O)[C@H](CCN)NC(=O)[C@H](CCN)NC(=O)[C@H](CC(C)C)NC(=O)[C@@H](CC(C)C)NC(=O)[C@H](CCN)NC1=O)C(C)O (mixture of isomers) [Example 19, 2-(RS)-2- Hydroxyoctanoyl polymyxin E nonapeptide] | – | – | – | –
2 | 4 | 16 | 4 | 0.5 | – | – | – | CC(C)C[C@@H]1NC(=O)[C@@H](Cc2ccccc2)NC(=O)[C@H](CCN)NC(=O)[C@@H](NC(=O)[C@H](CCN)NC(=O)[C@@H](NC(=O)CCN2CCS(=O)(=O)CC2)C(C)O)CCNC(=O)[C@H](C(C)O)NC(=O)[C@H](CCN)NC(=O)[C@H](CCN)NC1=O (some centres unmarked) [Example 12, 3-(1,1-dioxo-thiomorpholine-4-yl)propanoyl Polymyxin B nonapeptide] (X24-[Thr(3ξ)][Dab][Dab][Dab][dF]L[Dab][Dab][Thr(3ξ)]; lactam 3-C) | – | – | – | –
3 | 4 | 16 | 4 | 0.5 | – | – | – | CC(C)C[C@@H]1NC(=O)[C@@H](Cc2ccccc2)NC(=O)[C@H](CCN)NC(=O)[C@@H](NC(=O)[C@H](CCN)NC(=O)[C@@H](NC(=O)[C@@H]2C[C@@H](O)CN2)C(C)O)CCNC(=O)[C@H](C(C)O)NC(=O)[C@H](CCN)NC(=O)[C@H](CCN)NC1=O (stereo partly drawn) [Example 35, (2S,4R)-4-Hydroxy-2-pyrrolidine carbonyl polymyxin B nonapeptide, trifluoroacetate salt] (H-[Hyp][Thr(3ξ)][Dab][Dab][Dab][dF]L[Dab][Dab][Thr(3ξ)]; lactam 4-C) | – | – | – | –
4 | 2 | 8 | – | 0.5 | – | – | – | CC(C)C[C@@H]1NC(=O)[C@@H](Cc2ccccc2)NC(=O)[C@H](CCN)NC(=O)[C@@H](NC(=O)[C@H](CCN)NC(=O)[C@@H](NC(=O)[C@@H](N)C2CCCCC2)C(C)O)CCNC(=O)[C@H](C(C)O)NC(=O)[C@H](CCN)NC(=O)[C@H](CCN)NC1=O (stereo partly drawn) [Example 40, 2-(S)-(2-amino-2-cyclohexyl)ethanoyl polymyxin B nonapeptide, trifluoroacetate salt] (H-[Chg][Thr(3ξ)][Dab][Dab][Dab][dF]L[Dab][Dab][Thr(3ξ)]; lactam 4-C) | – | – | – | –
5 | 2 | 8 | – | 0.25 | – | – | – | CC(C)C[C@@H]1NC(=O)[C@@H](Cc2ccccc2)NC(=O)[C@H](CCN)NC(=O)[C@@H](NC(=O)[C@H](CCN)NC(=O)[C@@H](NCCC2(N)CCCCC2)C(C)O)CCNC(=O)[C@H](C(C)O)NC(=O)[C@H](CCN)NC(=O)[C@H](CCN)NC1=O (some centres unmarked) [Example 49, N-[2-(1-aminocyclohexyl)ethyl] Polymyxin B nonapeptide] (H-[X25][Dab][Dab][Dab][dF]L[Dab][Dab][Thr(3ξ)]; lactam 3-C) | – | – | – | –

Row | SMILES | MIC K. pneumoniae ATCC-BAA-2146 (Klebsiella pneumoniae [1]; [5]) [micrograms/mL] | MIC K. pneumoniae CCUG-59348 (Klebsiella pneumoniae [1]; [6]) [micrograms/mL] | MIC K. pneumoniae NCTC 13438 (Klebsiella pneumoniae [1]; [7]) [micrograms/mL] | MIC P. aeruginosa CCUG 59626 (Pseudomonas aeruginosa [2]; [8]) [micrograms/mL] | MIC K. pneumoniae ATCC 4352 (Klebsiella pneumoniae [3]) [micrograms/mL] | MIC E. coli ATCC25922 (Escherichia coli) [micrograms/mL] | MIC P. aeruginosa ATCC 27853 (Pseudomonas aeruginosa [4]) [micrograms/mL] | MIC K. pneumoniae ATCC-BAA-2146 (Klebsiella pneumoniae [1]; [9]) [micrograms/mL] | MIC K. pneumoniae CCUG-59348 (Klebsiella pneumoniae [1]; [9]) [micrograms/mL] | MIC K. pneumoniae NCTC 13438 (Klebsiella pneumoniae [1]; [9]) [micrograms/mL] | MIC P. aeruginosa CCUG 59626 (Pseudomonas aeruginosa [2]; [9]) [micrograms/mL]
6 | CC(C)C[C@@H]1NC(=O)[C@@H](Cc2ccccc2)NC(=O)[C@H](CCN)NC(=O)[C@@H](NC(=O)[C@H](CCN)NC(=O)[C@@H](NC(=O)c2ccc(N)cc2)C(C)O)CCNC(=O)[C@H](C(C)O)NC(=O)[C@H](CCN)NC(=O)[C@H](CCN)NC1=O (some centres unmarked) [Example 5, 4-Aminobenzoyl polymyxin B nonapeptide] (H-[4Abz][Thr(3ξ)][Dab][Dab][Dab][dF]L[Dab][Dab][Thr(3ξ)]; lactam 4-C) | 1 | 2 | 1 | 0.25 | – | – | – | 1 | 2 | 1 | 0.25
